In patent publication US12655173B2, “Hybrid amide derivatives of amphotericin B” (priority 2020, dated 2026):
Values after ≈ are worked out from the molar mass of the structure shown. Where two headings read alike, the source gives them in different places.

Experiments:
[1] = UV-Vis sterol binding assay
Experimental: UV-Vis is Binding Assay (FIG. 1A): The protocol for the sterol binding assay (UV-Vis) was developed in our lab. Compounds were dissolved in DMSO at a final concentration of 1 mM. Sterol were first dissolved in CHCl3 (>200 mM) and then diluted to 1 mM concentration with DMSO To synthesize the complex 1 ul of compound solution was taken in a clean eppendorf tube (2 ml) and sterol solution (volume depends on the stoichiometry) was added to it and the volume was made up to 20 ul with DMSO. 0.98 ml of PBS buffer was added to the Eppendorf tube and mixed properly. The absorbance of the solution was measured after 30 mins of incubation.

[2] = system: erythrocytes (whole human blood); experiment: MHC hemolysis assay; type: cell-based
Experimental: MHC (FIG. 1B and FIG. 10): The protocol for the hemolysis assay was adapted from the report of Paquet and coworkers (Chem. Eur. J. 2008, 14, 2465-2481). Whole human blood (sodium heparin) was purchased from Bioreclamation LLC (Westbury, NY) and stored at 4° C. and used within two days of receipt. To a 2.0 mL appendorf tube, 1 mL of whole human blood was added and centrifuged at 10,000 g for 2 minutes. The supernatant was removed and the erythrocyte pellet was washed with 1 mL of sterile saline and centrifuged at 10,000 g for 2 minutes. The saline wash was repeated for a total of three washes. The erythrocyte pellet was suspended in 1 mL of RBC buffer (10 mM NaH2PO4, 150 mM NaCl, 1 mM MgCl2, pH 7.4) to form the erythrocyte stock suspension.
Compounds were prepared as >15 mM stock solutions in DMSO and serially diluted to the following concentrations with DMSO: 7689, 5126, 2563, 2050, 1538, 1025, 769, 513, 384, 256, 205, 154, 103, 77, 51, 26 μM. To a 0.2 mL PCR tube, 24 μL of RBC buffer and 1 μL of compound stock solution were added, which gave final concentrations of 500, 300, 200, 100, 80, 60, 40, 30, 20, 15, 10, 8, 6, 4, 3, 2, 1 μM. Positive and negative controls were prepared by adding 1 μL of DMSO to MilliQ water or RBC buffer, respectively to 0.2 mL PCR tube. To each PCR tube, 0.63 μL. of the erythrocyte stock suspension was added and mixed by inversion. The samples were incubated at 37° C. for 2 hours. The samples were mixed by inversion and centrifuged at 10,000 g for 2 minutes. 15 μL of the supernatant from each sample was added to a 384-well place. Absorbances were read at 540 nm using a Biotek H1 Synergy Hybrid Reader (Winooski, VT), Experiments were performed in triplicate and the reported MHC represents an average of three experiments.

[3] = biological target: P450 1A2 (Homo sapiens, UniProt P05177); experiment: P450 inhibition 1A2; type: in vitro ADME
P450 1A2, sequence (P05177 whole entry): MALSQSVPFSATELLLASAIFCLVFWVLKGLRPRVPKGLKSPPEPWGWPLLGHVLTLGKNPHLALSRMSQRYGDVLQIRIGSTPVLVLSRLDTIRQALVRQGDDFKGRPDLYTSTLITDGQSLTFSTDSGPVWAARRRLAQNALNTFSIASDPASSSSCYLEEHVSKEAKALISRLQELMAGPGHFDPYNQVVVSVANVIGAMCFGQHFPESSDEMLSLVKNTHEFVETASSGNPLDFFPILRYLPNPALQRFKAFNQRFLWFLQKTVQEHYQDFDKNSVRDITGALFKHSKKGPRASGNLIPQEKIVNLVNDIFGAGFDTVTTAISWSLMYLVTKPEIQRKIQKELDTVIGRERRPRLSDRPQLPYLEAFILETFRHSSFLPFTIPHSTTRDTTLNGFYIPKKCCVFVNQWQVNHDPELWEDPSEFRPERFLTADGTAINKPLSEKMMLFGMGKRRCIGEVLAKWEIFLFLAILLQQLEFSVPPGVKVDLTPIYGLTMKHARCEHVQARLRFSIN

[4] = biological target: P450 2C9 (Homo sapiens, UniProt P11712); experiment: P450 inhibition 2C9; type: in vitro ADME
P450 2C9, sequence (P11712 whole entry): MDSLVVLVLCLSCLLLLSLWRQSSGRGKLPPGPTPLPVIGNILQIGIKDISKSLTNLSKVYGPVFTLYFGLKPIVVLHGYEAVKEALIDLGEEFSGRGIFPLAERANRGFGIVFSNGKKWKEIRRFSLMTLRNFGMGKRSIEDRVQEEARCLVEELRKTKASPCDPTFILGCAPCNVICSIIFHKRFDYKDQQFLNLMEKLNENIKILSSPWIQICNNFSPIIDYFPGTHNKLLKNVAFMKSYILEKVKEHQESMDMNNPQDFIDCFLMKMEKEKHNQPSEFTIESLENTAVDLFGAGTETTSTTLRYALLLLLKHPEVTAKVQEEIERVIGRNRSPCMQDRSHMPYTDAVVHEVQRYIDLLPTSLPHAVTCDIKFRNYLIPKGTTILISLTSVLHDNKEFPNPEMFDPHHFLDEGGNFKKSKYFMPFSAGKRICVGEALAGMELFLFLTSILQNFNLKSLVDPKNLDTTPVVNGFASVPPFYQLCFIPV

[5] = biological target: P450 2C19 (Homo sapiens, UniProt P33261); experiment: P450 inhibition 2C19; type: in vitro ADME
P450 2C19, sequence (P33261 whole entry): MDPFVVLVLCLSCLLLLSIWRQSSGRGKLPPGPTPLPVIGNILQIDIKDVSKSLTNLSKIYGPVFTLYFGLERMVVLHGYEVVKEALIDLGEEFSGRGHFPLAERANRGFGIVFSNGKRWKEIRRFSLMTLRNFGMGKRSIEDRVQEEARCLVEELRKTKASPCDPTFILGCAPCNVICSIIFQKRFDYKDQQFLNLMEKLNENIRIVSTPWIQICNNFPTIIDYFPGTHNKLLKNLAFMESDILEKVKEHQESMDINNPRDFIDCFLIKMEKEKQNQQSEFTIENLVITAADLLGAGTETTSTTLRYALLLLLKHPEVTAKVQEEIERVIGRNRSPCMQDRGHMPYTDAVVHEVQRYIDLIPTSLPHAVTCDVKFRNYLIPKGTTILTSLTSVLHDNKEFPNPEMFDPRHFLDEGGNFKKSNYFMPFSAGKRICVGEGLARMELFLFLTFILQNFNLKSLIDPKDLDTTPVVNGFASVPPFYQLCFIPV

[6] = biological target: P450 2D6 (Homo sapiens, UniProt P10635); experiment: P450 inhibition 2D6; type: in vitro ADME
P450 2D6, sequence (P10635 whole entry): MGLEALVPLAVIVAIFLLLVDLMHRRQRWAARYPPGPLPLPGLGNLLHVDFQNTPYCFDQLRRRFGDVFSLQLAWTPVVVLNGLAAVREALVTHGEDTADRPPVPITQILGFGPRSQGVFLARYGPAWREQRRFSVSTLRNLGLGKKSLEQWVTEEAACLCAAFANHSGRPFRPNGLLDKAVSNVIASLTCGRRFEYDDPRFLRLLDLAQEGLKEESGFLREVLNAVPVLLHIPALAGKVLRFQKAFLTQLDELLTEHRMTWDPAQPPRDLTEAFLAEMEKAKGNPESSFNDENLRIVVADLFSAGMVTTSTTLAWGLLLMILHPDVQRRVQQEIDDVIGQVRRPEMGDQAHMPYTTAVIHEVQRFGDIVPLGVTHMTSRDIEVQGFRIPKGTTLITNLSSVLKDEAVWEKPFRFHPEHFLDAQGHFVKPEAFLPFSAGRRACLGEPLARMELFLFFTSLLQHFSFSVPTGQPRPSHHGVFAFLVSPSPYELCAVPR

[7] = biological target: P450 3A4 (Homo sapiens, UniProt P08684); experiment: P450 inhibition 3A4; type: in vitro ADME
P450 3A4, sequence (P08684 whole entry): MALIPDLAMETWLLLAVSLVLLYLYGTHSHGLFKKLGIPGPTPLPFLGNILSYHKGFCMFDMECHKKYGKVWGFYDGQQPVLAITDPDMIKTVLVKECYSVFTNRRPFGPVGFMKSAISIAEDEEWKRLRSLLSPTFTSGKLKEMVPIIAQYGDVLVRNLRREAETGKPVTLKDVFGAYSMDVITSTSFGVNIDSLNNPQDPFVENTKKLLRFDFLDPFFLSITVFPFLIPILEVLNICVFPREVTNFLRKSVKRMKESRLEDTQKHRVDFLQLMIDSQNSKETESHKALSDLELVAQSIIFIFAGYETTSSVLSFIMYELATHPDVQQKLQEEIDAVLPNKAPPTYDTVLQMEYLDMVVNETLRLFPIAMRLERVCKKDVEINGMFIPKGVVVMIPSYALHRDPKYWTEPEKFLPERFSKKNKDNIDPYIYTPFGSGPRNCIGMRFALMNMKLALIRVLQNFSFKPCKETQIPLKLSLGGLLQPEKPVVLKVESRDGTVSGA

[8] = system: Coccidioides immitis; experiment: microbe, parasite or virus in culture; type: cell-based; details: for MIC Coccidioides immitis: 6 isolates, AmB (AmBisome)
[9] = system: Apophysomyces sp.; experiment: MIC against moulds; type: cell-based; details: 3 isolates; AmB (AmBisome)
[10] = system: Candida auris; experiment: MIC against yeasts; type: cell-based
[11] = system: Candida parapsilosis; experiment: MIC against yeasts; type: cell-based
[12] = system: Cryptococcus gattii; experiment: MIC against yeasts; type: cell-based
[13] = Solubility in D5W; details: in D5W
[14] = Liver microsome stability; details: rat, dog, monkey; for Liver microsome (T1/2, min): Mouse, human: All species
[15] = system: C. albicans SN250; experiment: In vivo efficacy in murine candidiasis model (C. albicans SN250), female CD-1 mice, kidney fungal burden
[16] = Mouse single IV injection: mortality
[17] = system: Trichophyton mentagropytes; experiment: MIC against yeasts (Table 3A); type: cell-based; details: 3 isolates
[18] = system: Scedosporium apiospermum; experiment: MIC against yeasts (Table 3A); type: cell-based; details: 2 isolates
[19] = system: Scedosporium prolificans; experiment: MIC against yeasts (Table 3A); type: cell-based; details: Lomentospora prolificans, 2 isolates
[20] = Tolerance study, IP dosing in immunocompromised mice, no infection; details: 25 mg/kg QD IP 7 days, observed 14 days
[21] = 10 isolates, Table 3, read-out: MIC Cryptococcus gattii

Structure (SMILES)	Binds Cholesterol [1]	MHC [2]	P450 Inhibition (%) 1A2 [3] [%]	P450 Inhibition (%) 2C9 [4] [%]	P450 Inhibition (%) 2C19 [5] [%]	P450 Inhibition (%) 2D6 [6] [%]	P450 Inhibition (%) 3A4 [7] [%]	MIC Coccidioides immitis [8] [µM]	MIC [9] [µM]	MIC ([10]; 10 isolates, Table 3) [µM]	MIC ([11]; 8 isolates, Table 3) [µM]	MIC [12, 21] [µM]	Solubility [13] [µM]	Liver microsome (T1/2, min) [14] [min]	Mouse candidiasis model 5 mpk; Log (CFU/mL) [15]	Mouse single IV injection: mortality (40 mpk) [16]	also measured
CC1C=CC=CC=CC=CC=CC=CC=CC(OC2OC(C)C(O)C(N)C2O)CC2OC(O)(CC(O)CC(O)C(O)CCC(O)CC(O)CC(=O)OC(C)C(C)C1O)CC(O)C2C(=O)NC(CO)(CO)CO (centres unmarked) [Compound 2]	No	>60	0.0	0.0	1.1	0.0	14.5	0.27 (≈ 0.277 µg/mL)	8.3 (≈ 8.53 µg/mL)	2.6 (≈ 2.67 µg/mL)	1.6 (≈ 1.64 µg/mL)	2 (≈ 2.05 µg/mL)	366 (≈ 376 µg/mL)	>145			
CC1C=CC=CC=CC=CC=CC=CC=CC(OC2OC(C)C(O)C(N)C2O)CC2OC(O)(CC(O)CC(O)C(O)CCC(O)CC(O)CC(=O)OC(C)C(C)C1O)CC(O)C2C(=O)NC(CO)CO (centres unmarked) [Compound 1]	No	>100	8.7	26.9	0.0	0.0	14.5	0.27 (≈ 0.269 µg/mL)	6.8 (≈ 6.78 µg/mL)	2.6 (≈ 2.59 µg/mL)	1.8 (≈ 1.79 µg/mL)	1.6 (≈ 1.6 µg/mL)	>7220	>145	4.8 Log (CFU/mL)	0/4	
C[C@@H]1[C@H](O)[C@@H](C)/C=C/C=C/C=C/C=C/C=C/C=C/C=C/[C@H](OC2O[C@H](C)[C@@H](O)[C@H](N)[C@@H]2O)C[C@@H]2O[C@](O)(C[C@@H](O)C[C@@H](O)[C@H](O)CC[C@@H](O)C[C@@H](O)CC(=O)O[C@H]1C)C[C@H](O)[C@H]2C(=O)O (some centres unmarked) [AmB, Amphotericin B]	Yes	8.4							0.75 (≈ 0.693 µg/mL)						5.2 Log (CFU/mL)	0/3	MIC ([8]; Coccidioides immitis, read-out: MIC Coccidioides immitis): 0.125 µM (≈ 0.116 µg/mL); MIC ([10]; Candidozyma auris, 10 isolates, Table 3): 1.2 µM (≈ 1.11 µg/mL); MIC ([10]; Candidozyma auris, 15 isolates, Table 3A): 2.9 µM (≈ 2.68 µg/mL); MIC ([11]; Lodderomyces parapsilosis, 6 isolates, Table 3A): 0.5 µM (≈ 0.462 µg/mL); MIC ([11]; Lodderomyces parapsilosis, 8 isolates, Table 3): 1.1 µM (≈ 1.02 µg/mL); MIC ([12]; Cryptococcus gattii, 1 isolate, Table 3A, read-out: MIC Cryptococcus gatti): 1 µM (≈ 0.924 µg/mL); MIC ([12]; Cryptococcus gattii, 10 isolates, Table 3, read-out: MIC Cryptococcus gattii): 0.75 µM (≈ 0.693 µg/mL); MIC [17]: 4 µM (≈ 3.7 µg/mL); MIC [18]: > 16 µM; MIC [19]: > 16 µM; half-life ([14]; mouse, human, liver microsomes): > 2.42 h; Survival [20]: 66%
